# Laboratory results: patent US5264427A, “20-substituted pregnene derivatives and their use as androgen synthesis inhibitors” (priority 1992, dated 1993)
# Read-outs that look alike come from different tables or passages of the source.
# Tests used:
# Assay type in all cases: biochemical
# [1] = target: T1, rat testicular 17(alpha)-hydroxylase/C17,20-lyase (Rattus norvegicus, UniProt P11715); assay: Hydroxylase/lyase assay, rat testicular homogenates, [21-14C]progesterone (Example 4, Table 3); conditions: 0.75 h
# T1 construct: rat testicular homogenates (prepared from 220-250g adult male Sprague-Dawley rats); from tissue; host or cells: testes of adult male Sprague-Dawley rats, homogenate
# T1 sequence (P11715 1-507): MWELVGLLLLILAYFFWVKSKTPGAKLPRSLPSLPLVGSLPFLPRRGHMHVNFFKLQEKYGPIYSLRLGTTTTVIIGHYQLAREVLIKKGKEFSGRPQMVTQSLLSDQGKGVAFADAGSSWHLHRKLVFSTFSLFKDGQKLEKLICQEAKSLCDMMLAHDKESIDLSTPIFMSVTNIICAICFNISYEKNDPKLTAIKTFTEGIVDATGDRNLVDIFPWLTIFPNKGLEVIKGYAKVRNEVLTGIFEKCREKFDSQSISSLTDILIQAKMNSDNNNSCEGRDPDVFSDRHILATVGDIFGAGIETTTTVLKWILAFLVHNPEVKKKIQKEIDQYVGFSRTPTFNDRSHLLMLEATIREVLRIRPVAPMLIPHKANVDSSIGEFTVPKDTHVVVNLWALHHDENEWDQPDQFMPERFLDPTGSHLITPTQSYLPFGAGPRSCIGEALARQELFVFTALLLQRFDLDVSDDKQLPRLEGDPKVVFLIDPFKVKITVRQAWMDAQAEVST
# Description: The assay was performed by incubation of rat testicular homogenates (prepared from 220-250g adult male Sprague-Dawley rats, approx. 3.5 mg protein) with [21-^14 C]progesterone (40uM, 5×10^4 dpm), NADPH generating system and candidate inhibitors in phosphate buffer (pH 7.4, total volume 500ul) under oxygen for 45 min at 37° C. Two ml of choloroform was added to each tube to stop the reaction. The steriods were extracted with chloroform and the aqueous phase was treated with charcoal. The side chain cleavage product [2-^14 C]acetic acid in the aqueous phase was mixed with 3a70B counting cocktail and counted on the Rack Beta II liquid scintillation counter. The enzyme activity was determined from the conversion of progesterone P4 to [2-^14 C]acetic acid.
# [2] = target: T2, 17(alpha)-hydroxylase/C17,20-lyase (Rattus norvegicus, UniProt P11715); assay: Hydroxylase/lyase assay, rat testis homogenates, [21-14C]-progesterone side-chain cleavage (Examples 2 and 3, Table 2); conditions: progesterone 40 microM, 45 min
# T2 construct: with rat testis homogenates (2.7 mg protein in 0.5 ml phosphate buffer); from tissue; host or cells: rat testis homogenate
# T2 sequence (P11715 1-507): T1 sequence (P11715 1-507)
# Description: Compounds I-16 and I-25 were synthesized according to known procedures. The compounds were then assayed for their ability to inhibit the 17(alpha)-hydroxylase/C17,20 -lyase enzyme and the 5(alpha)-reductaseenzyme. The hydroxylase/lyase assay was carried out by incubation of [21-^14 C]-progesterone (40 microM, 70,000 dpm) and candidate inhibitors with rat testis homogenates (2.7 mg protein in 0.5 ml phosphate buffer), NADPH generating system under oxygen for 45 minutes. The enzyme activity was measured according to the conversion of progesterone to the product of C17,20 -side chain cleavage ([2-^14 C]-acetic acid). […] The results were based on the TLC separation.
# 17(alpha)-hydroxylase = target: T3, 17(alpha)-hydroxylase (Rattus norvegicus, UniProt P11715); assay: 17(alpha)-hydroxylase assay, rat testicular microsomes (Example 1, Table 1); conditions: rat testicular microsomes, progesterone substrate, 30 min, 37 C; N.I. = no inhibition
# T3 construct: approximately 1 mg rat testicular microsomal protein in 450 microliters phosphate buffer; from tissue; host or cells: testes of adult male Sprague-Dawley rats (Charles River), microsomal fraction
# T3 sequence (P11715 1-507): T1 sequence (P11715 1-507)
# Description: (§1) Testes were obtained from 220°-250g adult male Sprague-Dawley rats (Charles River), immediately frozen in liquid nitrogen and stored at -70° C. After thawing in the ice bath, the testes were minced and homogenized in 0.25M sucrose (1:4 w/v), then centrifuged at 12,000×gfor 30 min and the resulting supernatant centrifuged at 105,000×g for one hour. The supernatant was then decanted and the pellet containing the microsomes was resuspended in 0.1M sodium phosphate buffer (pH 7.4) (2.5g wet weight of tissue/ 2 ml buffer). All the above procedures were performed at 4C. The microsomal fraction was stored at -70C. Just before use, microsomes were diluted to the concentration of 1.25 g wet weight of tissue/10 ml phosphate buffer.
# (§2) The incubation was stopped by cooling the mixture in an ice bath and adding 2 ml ether to each incubation tube. The ^3 H-labelled steriods (progesterone P4; 17(alpha)-hydroxyprogesterone 170HP4, androstenedione A and testosterone T, 8,000dpm each) were added as recovery markers and the steroids were extracted with ether (2 ml×3). The ether was evaporated with air. Steroid carriers (P4, 17-0HP4, A and T, 4 micrograms each) were added to the extracts which were then applied to thin layer chromatography (TLC) plates for separation of the steroids. After development for 1.5 hours in hexanes/ethyl acetate, 65:35(v/v), the steroids were located by UV (254 nm) absorption, scraped off and eluted into scintillation vials with ether. After evaporating the ether, the steroids were dissolved in counting cocktail and the radioactivity measured. The recovery of steroids calculated from the ^3 H-labelled markers was between 80 to 90 percent and the enzyme activity was determined from the percentage conversion of [4-C^14 ]-progesterone to 170HP4, A and T.
# (§3) The purity of each steroid on the TLC was confirmed by two methods. First, the percent conversion of each compound in a half amount of the extract from one incubation were compared after separation of TLC and HPLC. The HPLC procedure has been described in detail previously. The solvent system used was methanol/acetonitrile/water (15.6:36.4:48). The flow rate was 1 ml/min and pressure 2200 psi, the retention time of these steroids was P4 38.3 min, 170HP4 15.93 min, A 14.33 min, and T 11.43 min, respectively. Secondly, after the first separation by TLC in solvent system A (hexane/ethyl acetate 65:35), the eluted steroids were chromatographed in solvent system B (chloroform/acetonitrile, 85:15).
# ^1 Incubation of [4^14 Cprogesterone (various concentration,
# microsome (approximately 1 mg protein) and NADPH generating system was
# carried out at 37 C. under O2 for 30 min. The apparent Km for this
# [3] = target: T4, 17(alpha)-hydroxylase/17,20-lyase enzyme (Rattus norvegicus, UniProt P11715); assay: 17(alpha)-hydroxylase/17,20-lyase inhibition, rat testicular microsomes (Example 1); conditions: result in words
# T4 sequence (P11715 1-507): T1 sequence (P11715 1-507)
# Description: as §1
# as §2, with “After development for 1.5 hours in hexanes/ethyl acetate, 65:35(v/v), the steroids were located by UV (254 nm) absorption, scraped off and eluted into scintillation vials with ether.” left out
# C^17,20 -Lyase: The procedure for measurement of the C17,20 -lyase was similar to the procedure for the 17(alpha)-hydroxylase, except that the substrate was 17(alpha)-hydroxy-[[1,2,6,7-^3 H]-progesterone (various concentration, 10^5 dpm) and recovery markers were [4-^14 C]-labelled steroids. […] The enzyme activity was determined from the percent conversion of 17(alpha)-hydroxy-[1,2,6,7-3H]-progesterone to A and T.
# C17,20-lyase = target: T5, C17,20-lyase (Rattus norvegicus, UniProt P11715); assay: C17,20-lyase assay, rat testicular microsomes (Example 1, Table 1); conditions: rat testicular microsomes, 17(alpha)-hydroxyprogesterone substrate, 30 min, 37 C; N.I. = no inhibition
# T5 construct: approximately 1 mg rat testicular microsomal protein in 450 microliters phosphate buffer; from tissue; host or cells: testes of adult male Sprague-Dawley rats (Charles River), microsomal fraction
# T5 sequence (P11715 1-507): T1 sequence (P11715 1-507)
# Description: as §1
# C^17,20 -Lyase: The procedure for measurement of the C17,20 -lyase was similar to the procedure for the 17(alpha)-hydroxylase, except that the substrate was 17(alpha)-hydroxy-[[1,2,6,7-^3 H]-progesterone (various concentration, 10^5 dpm) and recovery markers were [4-^14 C]-labelled steroids. Carrier steroids (170HP4, A and T) were also added to locate the product areas on the TLC plates. The enzyme activity was determined from the percent conversion of 17(alpha)-hydroxy-[1,2,6,7-3H]-progesterone to A and T.
# as §3, with “The flow rate was 1 ml/min and pressure 2200 psi, the retention time of these steroids was P4 38.3 min, 170HP4 15.93 min, A 14.33 min, and T 11.43 min, respectively.” left out
# [4] = [I] = 10 × [S], progesterone 40uM, pH 7.4, 45 min, 37 C, read-out: Inhibition of 17(alpha)-hydroxylase/C17,20-lyase (%), [I] = 10 × [S]
# [5] = [I] = [S], progesterone 40uM, pH 7.4, 45 min, 37 C, read-out: Inhibition of 17(alpha)-hydroxylase/C17,20-lyase (%), [I] = [S]
# [6] = pH 7.4, read-out: Inhibition of 17(alpha)-hydroxylase/C17,20-lyase (%), [I] = 10 × [S]
# [7] = pH 7.4, read-out: Inhibition of 17(alpha)-hydroxylase/C17,20-lyase (%), [I] = [S]
smiles,measurement,setting,value
CC(=NN)[C@H]1CC[C@H]2[C@@H]3CC=C4C[C@@H](O)CC[C@]4(C)[C@H]3CC[C@]12C [Compound I-12],inhibition at 400 µM,[1]; [4],25.9%
same,inhibition at 40 µM,[1]; [5],8.55%
C[C@H](N)[C@H]1CC[C@H]2[C@@H]3CC=C4C[C@@H](O)CC[C@]4(C)[C@H]3CC[C@]12C [Compound I-9],inhibition at 400 µM,[1]; [6],27.3%
same,inhibition at 40 µM,[1]; [7],13.6%
CC(=O)[C@@]12O[C@@H]1C[C@H]1[C@@H]3CCC4=CC(=O)CC[C@]4(C)[C@H]3CC[C@@]12C [Compound I-18],inhibition at 400 µM,[1]; [4],64.2%
same,inhibition at 40 µM,[1]; [5],26.5%
"CC(O)(C#N)[C@H]1CC[C@H]2[C@@H]3CCC4=CC(=O)CC[C@]4(C)[C@H]3CC[C@]12C (some centres unmarked) [Compound I-25, 20-cyano-20-hydroxy-4-pregnen-3-one]","% Inhibition of 17(alpha)hydroxylase/lyase, [I] = 10 × [S]",[2],89.32%
same,"% Inhibition of 17(alpha)hydroxylase/lyase, [I] = [S]",[2],50.63%
"C[C@H](C=O)[C@H]1CC[C@H]2[C@@H]3CCC4=CC(=O)CC[C@]4(C)[C@H]3CC[C@]12C [Compound I-16, 4-pregnen-3-one-20(beta)carboxaldehyde]","% Inhibition of 17(alpha)hydroxylase/lyase, [I] = 10 × [S]",[2],89.95%
same,"% Inhibition of 17(alpha)hydroxylase/lyase, [I] = [S]",[2],61.76%
C=C[C@H]1CC[C@H]2[C@@H]3CC=C4C[C@@H](O)CC[C@]4(C)[C@H]3CC[C@]12C [Compound I-28],inhibition at 400 µM,[1]; [6],18.3%
same,inhibition at 40 µM,[1]; [7],13.5%
"CC(=NN(C)C)C1=CC[C@H]2[C@@H]3CC=C4C[C@@H](O)CC[C@]4(C)[C@H]3CC[C@]12C [Compound I-14, 5,16-Pregnadien-3(beta)-ol-20-one N,N-dimethyl hydrazone]",inhibition at 400 µM,[1]; [4],2.34%
same,inhibition at 40 µM,[1]; [5],10.2%
CC(=NO)C1=CC[C@H]2[C@@H]3CC=C4C[C@@H](O)CC[C@]4(C)[C@H]3CC[C@]12C [Compound I-5],inhibition at 400 µM,[1]; [6],51.8%
same,inhibition at 40 µM,[1]; [7],25.2%
"C[C@H](C=NN(C)C)[C@H]1CC[C@H]2[C@@H]3CCC4=CC(=O)CC[C@]4(C)[C@H]3CC[C@]12C [Compound I-15, 4-pregnen-3-oxo-20(beta)-carboxaldehyde N,N-dimethyl hydrazone]",inhibition at 400 µM,[1]; [4],52.7%
same,inhibition at 40 µM,[1]; [5],22.4%
"C[C@]12CC[C@H]3[C@@H](CC=C4C[C@@H](O)CC[C@@]43C)[C@@H]1CC[C@@H]2[C@]1(C)CO1 [Compound I-7, (20R)-20,21-epoxy-20-methyl-5-pregnen-3(beta)ol]",inhibition at 400 µM,[1]; [6],28.3%
same,inhibition at 40 µM,[1]; [7],21.6%
C#C[C@H]1CC[C@H]2[C@@H]3CC=C4C[C@@H](O)CC[C@]4(C)[C@H]3CC[C@]12C [Compound I-29],inhibition at 400 µM,[1]; [6],3.84%
same,inhibition at 40 µM,[1]; [7],8.26%
CC(=NO)[C@H]1CC[C@H]2[C@@H]3CC=C4C[C@@H](O)CC[C@]4(C)[C@H]3CC[C@]12C [Compound I-1],inhibition at 400 µM,[1]; [6],29.2%
same,inhibition at 40 µM,[1]; [7],15%
"CCN(CC)C(=O)[C@H]1CC[C@H]2[C@@H]3CC[C@H]4N(C)C(=O)CC[C@]4(C)[C@H]3CC[C@]12C [Compound 4-MA, N,N-diethyl-4-methyl-3-oxo-4-aza-5(alpha)-androstane-17(beta)-carboxyamide, reference compound]","% Inhibition of 17(alpha)hydroxylase/lyase, [I] = 10 × [S]",[2],No inhibition
same,"% Inhibition of 17(alpha)hydroxylase/lyase, [I] = [S]",[2],No inhibition
same,17(alpha)-hydroxylase Ki,17(alpha)-hydroxylase,N.I
same,"inhibition of the 17(alpha)-hydroxylase/17,20-lyase enzyme",[3],did not show any inhibition
same,"C17,20-lyase Ki","C17,20-lyase",N.I.
CC(=O)OC1=CC2=CC[C@H]3[C@@H]4CC[C@H]([C@H](C)C#N)[C@@]4(C)CC[C@@H]3[C@@]2(C)CC1 [Compound I-24],inhibition at 400 µM,[1]; [4],67.2%
same,inhibition at 40 µM,[1]; [5],33.6%
"CC(C#N)=C1CC[C@H]2[C@@H]3CCC4=CC(=O)CC[C@]4(C)[C@H]3CC[C@]12C [Compound I-26, 20-cyano-4,17(20)-pregnadien-3-one]",inhibition at 400 µM,[1]; [6],89.7%
same,inhibition at 40 µM,[1]; [7],53.5%
C[C@@H](N)[C@H]1CC[C@H]2[C@@H]3CC=C4C[C@@H](O)CC[C@]4(C)[C@H]3CC[C@]12C [Compound I-10],inhibition at 400 µM,[1]; [6],33.8%
same,inhibition at 40 µM,[1]; [7],8.54%
"C[C@]12CCC(=O)C(O)=C1CC[C@@H]1[C@@H]2CC[C@]2(C)C(=O)CC[C@@H]12 [Compound 4-OHA, 4-hydroxy androstenedione, reference compound]","inhibition of the 17(alpha)-hydroxylase/17,20-lyase enzyme",[3],did not show any inhibition
"C[C@]12CC[C@H]3[C@@H](CC=C4C[C@@H](O)CC[C@@]43C)[C@@H]1CC[C@@H]2[C@@]1(C)CO1 [Compound I-8, (20S)-20,21-epoxy-20-methyl-5-pregnen-3(beta)-ol]",inhibition at 400 µM,[1]; [6],29.4%
same,inhibition at 40 µM,[1]; [7],16.3%
